Data set [1] deals with pigweed (Amaranthus retroflexus). Put plainly: Preemergence herbicidal activity. Conditions: Table 6 (headed Post-emergent; text: preemergence), after 3 weeks; for pest or weed control at 280 ppm: rate 280 ppm. It counts as in vivo. From the text: (§1) Seeds of the desired test plant species were planted in a soil matrix prepared by mixing a loam soil (43 percent silt, 19 percent clay, and 38 percent sand, with a pH of about 8.1 and an organic matter content of bout 1.5 percent) and sand in a 70 to 30 ratio. The soil matrix was contained in plastic pots with a surface area of 113 square centimeters. When required to ensure good germination and healthy plants. a fungicide treatment and/or other chemical or physical treatment was applied.
(§2) A weighed amount, determined by the highest rate to be tested, of each test compound was placed in a 20 mL glass vial and was dissolved in 4 mL of a 97:3 v/v (volume/volume) mixture of acetone and dimethyl sulfoxide to obtain concentrated stock solutions. […] The stock solutions obtained were diluted with a 99.9:0.1 mixture of water and Tween® […] surfactant to obtain application solutions of known concentration. The solutions containing the highest concentration to be tested were prepared by diluting 2 mL aliquots of the stock solution with 15 mL of the mixture and lower concentrations were prepared by serial dilution of the stock solution. A 2.5 mL aliquot of each solution of known concentration was sprayed evenly onto the soil surface (113 sq. cm) of each seeded pot using a Cornwall 5.0 mL glass syringe fitted with a TeeJet TN-3 hollow cone nozzle to obtain thorough coverage of the soil in each pot. Control pots were sprayed in the same manner with the aqueous mixture.
(§3) The treated pots and control pots were placed in a greenhouse maintained with an approximate 15 hr photoperiod and temperatures of about 23-29° C. during the day and 22-28° C. during the night. Nutrients and water were added on a regular basis and supplemental lighting was provided with overhead metal halide 1000-Watt lamps as necessary. The water was added by top-irrigation. After 3 weeks the condition of the test plants that germinated and grew as compared with that of the untreated plants that germinated and grew was determined visually and scored on a scale of 0 to 100 percent where 0 corresponds to no injury and 100 corresponds to complete kill or no germination.

The subject of data set [2] is morningglory (Ipomoea hederacea). Put plainly: Preemergence herbicidal activity. It counts as in vivo. Conditions: Table 6 (headed Post-emergent; text: preemergence), after 3 weeks; for pest or weed control at 280 ppm: rate 280 ppm.
Description: as §1, §2, §3

Data set [3] has as its system velvetleaf (Abutilon theophrasti). Put plainly: Preemergence herbicidal activity. It counts as in vivo. The note with it: Table 6 (headed Post-emergent; text: preemergence), after 3 weeks; for pest or weed control at 280 ppm: rate 280 ppm.
Description: as §1, §2, §3

Data set [4] concerns cocklebur (Xanthium strumarium). The experiment in a line: Postemergence herbicidal activity. Type of data set: in vivo. The note with it: Table 1, visual, after 2 weeks. The method, then:
(§4) Seeds of the desired test plant species were planted in Grace-Sierra MetroMix® 306 planting mixture, which typically has a pH of 6.0 to 6.8 and an organic matter content of about 30 percent, in plastic pots with a surface area of 64 square centimeters. When required to ensure good germination and healthy plants, a fungicide treatment and/or other chemical or physical treatment was applied. The plants were grown for 7-21 days in a greenhouse with an approximate 15 hr photoperiod which was maintained at about 23-29° C. during the day and 22-28° C. during the night. Nutrients and water were added on a regular basis and supplemental lighting was provided with overhead metal halide 1000-Watt lamps as necessary. The plants were employed for testing when they reached the first or second true leaf stage.
(§5) A weighed amount, determined by the highest rate to be tested, of each test compound was placed in a 20 mL glass vial and was dissolved in 4 mL of a 97:3 v/v (volume/volume) mixture of acetone and dimethyl sulfoxide (DMSO) to obtain concentrated stock solutions. […] The concentrated stock solutions obtained were diluted with an aqueous mixture containing acetone, water, isopropyl alcohol, DMSO, Atplus 411F crop oil concentrate, and Triton X-155 surfactant in a 48.5:39:10:1.5:1.0:0.02 v/v ratio to obtain spray solutions of known concentration. The solutions containing the highest concentration to be tested were prepared by diluting 2 mL aliquots of the stock solution with 13 mL of the mixture and lower concentrations were prepared by serial dilution of the stock solution. Approximately 1.5 mL aliquots of each solution of known concentration were sprayed evenly onto each of the test plant pots using a DeVilbiss atomizer driven by compressed air pressure of 2 to 4 psi ([…]) to obtain thorough coverage of each plant. Control plants were sprayed in the same manner with the aqueous mixture. In this test an application rate of 1 ppm results in the application of approximately 1 g/Ha.
(§6) The treated plants and control plants were placed in a greenhouse as described above and watered by sub-irrigation to prevent wash-off of the test compounds. After 2 weeks the condition of the test plants as compared with that of the untreated plants was determined visually and scored on a scale of 0 to 100 percent where 0 corresponds to no injury and 100 corresponds to complete kill.

For data set [5], the system named is chickweed (Stellaria media). Put plainly: Postemergence herbicidal activity. It counts as in vivo. The note with it: Table 1, visual, after 2 weeks. The procedure: as §4, §5, §6
The test system of data set [6] is wild buckwheat (Polygonum convolvulus). The experiment in a line: Postemergence herbicidal activity. Type of data set: in vivo. Conditions: Table 1, visual, after 2 weeks. The method, then:
as §4, §5, §6

Setting [7] is: Amaranthus retroflexus, 504 h, read-out: % Control AMARE.
Where [8] appears, read: Ipomoea, 504 h, read-out: % Control IPOHE.
[9] abbreviates: Abutilon theophrasti, 504 h, read-out: % Control ABUTH.
The mark [10] stands for this setting: Xanthium strumarium, post-emergence, 336 h, rate 250 ppm, read-out: Post-emergent % Control XANST.
[11] abbreviates: Stellaria media, post-emergence, 336 h, rate 250 ppm, read-out: Post-emergent % Control STEME.
Where [12] appears, read: Fallopia convolvulus, post-emergence, 336 h, rate 250 ppm, read-out: Post-emergent % Control POLCO.
[13] abbreviates: Amaranthus retroflexus, 504 h, rate 560 ppm, read-out: % Control AMARE.
The mark [14] stands for this setting: Ipomoea, 504 h, rate 560 ppm, read-out: % Control IPOHE.
Setting [15] is: Abutilon theophrasti, 504 h, rate 560 ppm, read-out: % Control ABUTH.

A word on the melting point: it is the temperature of the solid-liquid transition. Regarding `CCCCOCCOC(=O)c1nc(Cl)cc(N)c1Cl` (hydrate or solvate) [Compound 10, butoxyethyl 4-amino-3,6-dichloropyridine-2-carboxylate], the melting point was 64 to 67 °C.
For the molecule `CCCCC(CC)COC(=O)c1nc(Cl)cc(N)c1Cl` (stereo not shown) [Compound 2, 2-Ethylhexyl 4-amino-3,6-dichloropyridine-2-carboxylate], the melting point amounted to 55 °C. In data set [1] (setting [7]), the pest or weed control at 280 ppm came out at 100%. The pest or weed control at 280 ppm in data set [2] (setting [8]) stood at 100%. Also, the pest or weed control at 280 ppm in data set [3] (setting [9]) came to 100%. For the same molecule, the pest or weed control at 250 ppm in data set [4] (setting [10]) is 95%. The pest or weed control at 250 ppm in data set [5] (setting [11]) was 80%. The pest or weed control at 250 ppm in data set [6] (setting [12]) was determined as 100%.
The molecule `CCCCCOC(=O)c1nc(Cl)cc(N)c1Cl` [Compound 8, n-pentyl 4-amino-3,6-dichloropyridine-2-carboxylate] gave a melting point of 71 to 73 °C. Also, the pest or weed control at 280 ppm in data set [1] (setting [7]) was 100%. In addition, in data set [2] (setting [8]), the pest or weed control at 280 ppm was determined as 100%. In addition, in data set [3] (setting [9]), the pest or weed control at 280 ppm was determined as 100%. In data set [4] (setting [10]), the pest or weed control at 250 ppm is 100%. Further, the pest or weed control at 250 ppm in data set [5] (setting [11]) was 90%. In data set [6] (setting [12]), the pest or weed control at 250 ppm came to 100%.
Molecule `NC(=O)c1nc(Cl)cc(N)c1Cl` [Compound 11, 4-Amino-3,6-dichloropyridine-2-carboxamide] showed a melting point of 240 to 241 °C. Further, the pest or weed control at 560 ppm in data set [1] (setting [13]) turned out to be 0%. Also, the pest or weed control at 560 ppm in data set [2] (setting [14]) was 85%. The pest or weed control at 560 ppm in data set [3] (setting [15]) stood at 85%. Further, the pest or weed control at 125 ppm in data set [4] (Xanthium strumarium, post-emergence, 336 h, rate 125 ppm, read-out: Post-emergent % Control XANST) was found to be 80%. Besides, the pest or weed control at 125 ppm in data set [5] (Stellaria media, post-emergence, 336 h, rate 125 ppm, read-out: Post-emergent % Control STEME) was 85%. Further, the pest or weed control at 125 ppm in data set [6] (Fallopia convolvulus, post-emergence, 336 h, rate 125 ppm, read-out: Post-emergent % Control POLCO) amounted to 95%.
For `Nc1cc(Br)nc(C(=O)O)c1Br` [Compound 17, 4-Amino-3,6-dibromopyridine-2-carboxylic acid], the melting point is 205 °C (dec.). The pest or weed control at 560 ppm in data set [1] (setting [13]) came to 100%. Moreover, the pest or weed control at 560 ppm in data set [2] (setting [14]) turned out to be 100%. In addition, the pest or weed control at 560 ppm in data set [3] (setting [15]) amounted to 100%. Moreover, the pest or weed control at 250 ppm in data set [4] (setting [10]) was found to be 100%. The pest or weed control at 250 ppm in data set [5] (setting [11]) was found to be 80%. Moreover, the pest or weed control at 250 ppm in data set [6] (setting [12]) was determined as 100%.
Molecule `Nc1c(Cl)c(C(=O)O)nc(Cl)c1C(F)(F)F` [Compound 21, 4-Amino-3,6-dichloro-5-trifluoromethylpyridine-2-carboxylic acid] gave a melting point of 173 °C. In addition, in data set [1] (setting [13]), the pest or weed control at 560 ppm is 80%. In data set [2] (setting [14]), the pest or weed control at 560 ppm was 90%. The pest or weed control at 560 ppm in data set [3] (setting [15]) was 80%. Besides, in data set [4] (setting [10]), the pest or weed control at 250 ppm turned out to be 70%. Besides, the pest or weed control at 250 ppm in data set [5] (setting [11]) turned out to be 20%. The pest or weed control at 250 ppm in data set [6] (setting [12]) came out at 20%.
`COc1c(Cl)nc(C(=O)O)c(Cl)c1N` [Compound 22, 4-Amino-3,6-dichloro-5-methoxypyridine-2-carboxylic acid]: the melting point was 154 to 156 °C. In addition, the pest or weed control at 560 ppm in data set [1] (setting [13]) was 100%. Moreover, in data set [2] (setting [14]), the pest or weed control at 560 ppm amounted to 100%. Besides, the pest or weed control at 560 ppm in data set [3] (setting [15]) is 100%. Also, in data set [4] (setting [10]), the pest or weed control at 250 ppm was determined as 80%. Further, in data set [5] (setting [11]), the pest or weed control at 250 ppm was 90%. In addition, the pest or weed control at 250 ppm in data set [6] (setting [12]) turned out to be 100%.
`COC(=O)c1nc(Cl)c([N+](=O)[O-])c(N)c1Cl` [Compound 25, Methyl 4-amino-3,6-dichloro-5-nitropyridine-2-carboxylate] had a melting point of 127 to 128 °C. Moreover, the pest or weed control at 250 ppm in data set [4] (setting [10]) worked out at 60%. Also, the pest or weed control at 250 ppm in data set [5] (setting [11]) was 50%. The pest or weed control at 250 ppm in data set [6] (setting [12]) stood at 50%.
For the molecule `CCCCNc1cc(Cl)nc(C(=O)O)c1Cl` [Compound 29, 4-N-butylamino-3,6-dichloropyridine-2-carboxylic acid], the melting point fell in the range of 96 to 97 °C. For the same molecule, in data set [1] (setting [13]), the pest or weed control at 560 ppm stood at 100%. In addition, the pest or weed control at 560 ppm in data set [2] (setting [14]) was found to be 100%. The pest or weed control at 560 ppm in data set [3] (setting [15]) was 100%. The pest or weed control at 250 ppm in data set [4] (setting [10]) was 95%. The pest or weed control at 250 ppm in data set [5] (setting [11]) was determined as 90%. Besides, the pest or weed control at 250 ppm in data set [6] (setting [12]) is 90%.
Molecule `Cc1c(Br)nc(C(=O)O)c(Cl)c1N=[N+]=[N-]` [Compound 38, Methyl 4-azido-6-bromo-3-chloropyridine-2-carboxylic acid] displayed a melting point of 84 to 86 °C.
For `Nc1cc(Oc2ccc(Cl)c(Cl)c2)nc(C(=O)O)c1Cl` [Compound 51, 4-amino-3-chloro-6-(3,4-dichlorophenoxy)-pyridine-2-carboxylic acid], the pest or weed control at 280 ppm in data set [1] (setting [7]) turned out to be 98%; in data set [2] (setting [8]), 0%; in data set [3] (setting [9]) it was 80%. Further, the pest or weed control at 250 ppm was determined as 100% in data set [4] (setting [10]), 70% in data set [5] (setting [11]) and 100% in data set [6] (setting [12]).
As to `Nc1c(F)c(Oc2ccc(Cl)c(Cl)c2)nc(C(=O)O)c1Cl` [Compound 55, 4-Amino-3-chloro-5-fluoro-6-(3,4-dichlorophenoxy)pyridine-2-carboxylic acid], the pest or weed control at 250 ppm was 95% in data set [1] (Amaranthus retroflexus, 504 h, rate 250 ppm, read-out: % Control AMARE); 100% in data set [2] (Ipomoea, 504 h, rate 250 ppm, read-out: % Control IPOHE); 100% in data set [3] (Abutilon theophrasti, 504 h, rate 250 ppm, read-out: % Control ABUTH); 100% in data set [4] (setting [10]); 95% in data set [5] (setting [11]); 100% in data set [6] (setting [12]).
Take “N,N-diacetyl 4-amino-3,6-dichloropyridine-2-carboxylate [Compound 13]”: the “% Control AMARE” value in data set [1] (rate 560 ppm) was found to be 100%. In addition, in data set [2] (rate 560 ppm), the “% Control IPOHE” value is 95%. The “% Control ABUTH” value in data set [3] (rate 560 ppm) amounted to 95%. In addition, the “Post-emergent % Control XANST” value in data set [4] (rate 250 ppm) is 95%. The “Post-emergent % Control STEME” value in data set [5] (rate 250 ppm) is given as 100%. Also, in data set [6] (rate 250 ppm), the “Post-emergent % Control POLCO” value was determined as 80%.
